Data reported in a compilation of properties of binary mixtures (doi:10.1021/jp5065243).

Test: xn = mol fraction of the nth substance listed
Settings: 101 kPa

C[N+](C)(C)CCO.O=S(=O)([N-]S(=O)(=O)C(F)(F)F)C(F)(F)F + OCCCCCO
viscosity [mPa·s]
Settings | x2 = 0 | x2 = 0.1351 | x2 = 0.2149 | x2 = 0.4145 | x2 = 0.5087 | x2 = 0.6847 | x2 = 0.7858 | x2 = 0.9071
313.15 K | 56.4 | 49.5 | 45.2 | 38.4 | 37 | 36.8 | 37.8 | 40.8
318.15 K | 46.8 | 40.8 | – | 31.4 | 30.2 | 29.7 | 30.3 | 32.9
323.15 K | – | 34.2 | – | 26.1 | 24.9 | 24.3 | 24.7 | 26.8
328.15 K | 33.4 | 28.9 | – | 22 | 20.9 | 20.2 | 20.2 | 22
333.15 K | 28.6 | 24.7 | – | 18.7 | 17.7 | 17 | 16.86 | 18.3
338.15 K | 24.6 | 21.3 | 19.5 | – | 15.17 | 14.44 | 14.12 | 15.4
343.15 K | 21.6 | 18.6 | 17 | 13.98 | 13.08 | – | 11.92 | 12.99

CC(O)CO (configuration not stated) + CCCC[N+](C)(C)C.O=S(=O)([N-]S(=O)(=O)C(F)(F)F)C(F)(F)F
x1 = 1
Settings | viscosity [mPa·s]
323.15 K | 12.2
328.15 K | 9.85
333.15 K | 8
338.15 K | 6.41
343.15 K | 5.27
348.15 K | 4.54

CC(O)CO (configuration not stated) + C[N+](C)(C)CCO.O=S(=O)([N-]S(=O)(=O)C(F)(F)F)C(F)(F)F
x1 = 1
Settings | viscosity [mPa·s]
313.15 K | 19.1
318.15 K | 15.17
323.15 K | 12.2
328.15 K | 9.85
333.15 K | 8
338.15 K | 6.4
343.15 K | 5.27
348.15 K | 4.5
353.15 K | 3.78

CCCC[N+](C)(C)C.O=S(=O)([N-]S(=O)(=O)C(F)(F)F)C(F)(F)F + CC(O)CO
viscosity [mPa·s]
Settings | x2 = 0 | x2 = 0.132 | x2 = 0.1909 | x2 = 0.3054 | x2 = 0.5274 | x2 = 0.7262 | x2 = 0.8149 | x2 = 0.8843
323.15 K | – | 25.2 | 22.8 | 19.6 | 15.85 | 14.66 | 12.95 | –
328.15 K | 30 | 21.4 | – | 16.72 | 13.36 | 12.33 | 10.63 | 9.67
333.15 K | 25.7 | 18.4 | 16.53 | – | 11.41 | 10.46 | 8.85 | 8.04
338.15 K | – | 15.98 | 14.01 | – | – | 8.91 | – | 6.68
343.15 K | – | 13.99 | 12.36 | 10.89 | 8.6 | 7.59 | 6.35 | 5.62
348.15 K | – | 12.65 | – | 9.89 | – | 6.68 | – | 4.96
353.15 K | 15.63 | 11.91 | 10.8 | 9.3 | 7.51 | 6.1 | – | 4.62

CCC(O)CO (configuration not stated) + CCCC[N+](C)(C)C.O=S(=O)([N-]S(=O)(=O)C(F)(F)F)C(F)(F)F
x1 = 1
Settings | viscosity [mPa·s]
323.15 K | 12.85
333.15 K | 8.33
338.15 K | 6.83
343.15 K | 5.65
348.15 K | 4.75
353.15 K | 4.03

CC(O)C(C)O (configuration not stated) + CCCC[N+](C)(C)C.O=S(=O)([N-]S(=O)(=O)C(F)(F)F)C(F)(F)F
viscosity [mPa·s]
Settings | x1 = 0.0879 | x1 = 0.3137 | x1 = 0.4515 | x1 = 0.557 | x1 = 0.6216 | x1 = 0.8142 | x1 = 1
323.15 K | 28.8 | 20.9 | 18.2 | – | – | 15.29 | 17
328.15 K | 24.4 | 17.7 | 15.32 | – | 13.26 | 12.34 | 13.13
333.15 K | 20.9 | – | – | – | 11.09 | 10.19 | 10.34
338.15 K | 18.1 | 13.22 | 11.32 | 10 | 9.39 | 8.53 | 8.27
343.15 K | 15.83 | 11.16 | 9.89 | 8.68 | 8.03 | 7.33 | –

CCCC[N+](C)(C)C.O=S(=O)([N-]S(=O)(=O)C(F)(F)F)C(F)(F)F + CC(O)C(C)O
x2 = 0
Settings | viscosity [mPa·s]
323.15 K | 35.6
333.15 K | 25.7
338.15 K | 22.1
343.15 K | 19.2

C[N+](C)(C)CCO.O=S(=O)([N-]S(=O)(=O)C(F)(F)F)C(F)(F)F + CC(O)CO
viscosity [mPa·s]
Settings | 313.15 K | 318.15 K | 323.15 K | 328.15 K | 333.15 K | 338.15 K | 343.15 K | 348.15 K | 353.15 K
x2 = 0 | – | 46.8 | 39.3 | 33.4 | – | – | 21.6 | – | 16.9
x2 = 0.2189 | 37.3 | 31.1 | 26.2 | 22.3 | 19.2 | 16.54 | – | 12.98 | 11.55
x2 = 0.3834 | 31.1 | 26.2 | 21.7 | 18.6 | 15.87 | 13.73 | – | 10.65 | 9.42
x2 = 0.4786 | – | – | 19.8 | 16.76 | 14.37 | 12.63 | 10.88 | 9.6 | 8.48
x2 = 0.5867 | 26.7 | 21.9 | 18.2 | – | 13.15 | 11.34 | 9.88 | 8.68 | 7.67
x2 = 0.7668 | 22 | 17.9 | 14.79 | 12.4 | 10.52 | 9.01 | 7.78 | 6.77 | 5.91
x2 = 0.8744 | 19.7 | 15.95 | 13.08 | 10.84 | 9.12 | 7.72 | – | 5.69 | 4.91

OCCCCCO + C[N+](C)(C)CCO.O=S(=O)([N-]S(=O)(=O)C(F)(F)F)C(F)(F)F
x1 = 1
Settings | viscosity [mPa·s]
313.15 K | 45.6
318.15 K | 36.9
323.15 K | 29.8
328.15 K | 24.5
338.15 K | 16.84
343.15 K | 14.44

CCCC[N+](C)(C)C.O=S(=O)([N-]S(=O)(=O)C(F)(F)F)C(F)(F)F + CCC(O)CO
viscosity [mPa·s]
Settings | 323.15 K | 328.15 K | 333.15 K | 338.15 K | 343.15 K | 348.15 K | 353.15 K
x2 = 0 | 35.6 | – | 25.7 | 22.1 | 19.2 | 16.81 | 15.63
x2 = 0.2291 | 22.5 | 19.1 | 16.35 | – | – | 10.93 | 10.09
x2 = 0.3543 | 19.1 | 16.13 | 13.78 | – | 10.4 | 9.13 | 8.39
x2 = 0.5116 | 16.9 | 14.18 | 12.01 | 10.29 | 8.9 | 7.77 | –
x2 = 0.6289 | – | 13.27 | 11.03 | 9.35 | 8.1 | – | 6.33
x2 = 0.8622 | 13.55 | 10.93 | 8.96 | 7.44 | 6.26 | 5.32 | –
x2 = 0.9031 | 13.23 | 10.7 | 8.68 | 7.12 | 5.98 | 5.19 | 4.58

OCCCO + C[N+](C)(C)CCO.O=S(=O)([N-]S(=O)(=O)C(F)(F)F)C(F)(F)F
x1 = 1
Settings | viscosity [mPa·s]
313.15 K | 20.3
318.15 K | 16.88
323.15 K | 14.16
328.15 K | 12.01
333.15 K | 10.24
343.15 K | 7.47
348.15 K | 6.62
353.15 K | 5.8

C[N+](C)(C)CCO.O=S(=O)([N-]S(=O)(=O)C(F)(F)F)C(F)(F)F + OCCCO
viscosity [mPa·s]
Settings | 313.15 K | 318.15 K | 323.15 K | 328.15 K | 333.15 K | 338.15 K | 343.15 K | 348.15 K | 353.15 K
x2 = 0 | 56.4 | – | 39.3 | – | 28.6 | 24.6 | 21.6 | – | 16.9
x2 = 0.1272 | – | 39.1 | 32.8 | 27.9 | – | 20.8 | 18.1 | 16 | 14.19
x2 = 0.2297 | 39.8 | 33.1 | 27.9 | 23.8 | – | – | – | 13.8 | 12.29
x2 = 0.4106 | – | 25.1 | 21.2 | 18.1 | 15.6 | 13.62 | 11.96 | 10.58 | 9.49
x2 = 0.5712 | – | 20.8 | 17.5 | 14.95 | 12.87 | 11.18 | 9.79 | – | 7.65
x2 = 0.6946 | 22.2 | 18.4 | 15.47 | 13.14 | – | – | 8.51 | 7.46 | 6.58
x2 = 0.8367 | 20.4 | 16.91 | – | – | 10.27 | 8.86 | 7.74 | 6.78 | –
x2 = 0.9474 | 19.5 | 16.22 | 13.62 | 11.54 | 9.86 | – | 7.36 | 6.39 | 5.57
